SMILES strings stand for the structures.

Assay [1] relates to MCF7. As to the kind of experiment: Induction of IAP-mediated estrogen receptor alpha degradation in human MCF7 cells at <1 uM by western blot analysis relative to control. Format: cell-based. The settings on record: dose microM <1.
Assay [2] deals with T1, von Hippel-Lindau disease tumor suppressor/Estrogen receptor (Homo sapiens, UniProt P03372+P40337). As to the kind of experiment: Induction of VHL-mediated ERalpha degradation in human T47D cells assessed as maximum degradation by western blot analysis relative to control. Format: cell-based.
Target sequence in this assay (P40337 whole entry, looked up, one chain of several): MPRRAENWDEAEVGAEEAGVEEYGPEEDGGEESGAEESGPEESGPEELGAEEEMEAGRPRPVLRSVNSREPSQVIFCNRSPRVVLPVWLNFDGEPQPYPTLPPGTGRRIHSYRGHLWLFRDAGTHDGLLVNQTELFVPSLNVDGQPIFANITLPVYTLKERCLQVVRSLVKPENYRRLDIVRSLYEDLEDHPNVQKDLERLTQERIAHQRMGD
The test system of assay [3] is T47D. As to the kind of experiment: Antiproliferative activity against human T47D cells incubated for 6 days with replacement of medium every 2 to 3 days by MTT assay relative to control. The conditions noted are these: time 6 day. The class given is functional.
In assay [4] the test system is T47D. Briefly: Antiproliferative activity against human T47D cells incubated for 6 days with replacement of medium every 2 to 3 days by MTT assay. Format: functional, cell-based.
Assay [5] concerns the target T1, von Hippel-Lindau disease tumor suppressor/Estrogen receptor. As to the kind of experiment: Induction of VHL-mediated ERalpha degradation in human MCF7 cells by western blot analysis. The class given is cell-based.
Target sequence in this assay (P40337 whole entry, one chain of several): as the sequence (P40337 whole entry, looked up, one chain of several) above
Assay [6] shares this target. Briefly: Induction of VHL-mediated ERalpha degradation in human T47D cells by western blot analysis. The class given is cell-based.
Target sequence in this assay (P40337 whole entry, one chain of several): as the sequence (P40337 whole entry, looked up, one chain of several) above
For assay [7], the system named is MCF7. Briefly: Antiproliferative activity against human MCF7 cells incubated for 6 days with replacement of medium every 2 to 3 days by MTT assay relative to control. The settings on record: time 6 day. Format: functional.
Assay [8] has as its system MCF7. As to the kind of experiment: Antiproliferative activity against human MCF7 cells incubated for 6 days with replacement of medium every 2 to 3 days by MTT assay. The class given is functional, cell-based.
Assay [9] addresses T1, von Hippel-Lindau disease tumor suppressor/Estrogen receptor. As to the kind of experiment: Induction of VHL-mediated ERalpha degradation in human MCF7 cells assessed as maximum degradation by western blot analysis relative to control. Format: cell-based.
Target sequence in this assay (P40337 whole entry, looked up, one chain of several): as above
Assay [10] has as its system MCF7. Briefly: Growth inhibition of human MCF7 cells harboring wild type estrogen receptor incubated for 5 days by PrestoBlue cell viability assay. The class given is functional, cell-based. The conditions noted are these: MCF7, 120 h.
Assay [11] concerns MCF7. Briefly: Growth inhibition of human MCF7 cells harboring ER Y537S mutant incubated for 5 days by PrestoBlue cell viability assay. Format: functional, cell-based. The settings on record: MCF7, 120 h.
Assay [12] concerns MCF7. As to the kind of experiment: Growth inhibition of human MCF7 cells harboring ER D538G mutant incubated for 5 days by PrestoBlue cell viability assay. The class given is functional, cell-based. The settings on record: MCF7, 120 h.
The next assay concerns the target T2, Estrogen receptor (Homo sapiens, UniProt P03372).
T2 sequence (P03372 whole entry): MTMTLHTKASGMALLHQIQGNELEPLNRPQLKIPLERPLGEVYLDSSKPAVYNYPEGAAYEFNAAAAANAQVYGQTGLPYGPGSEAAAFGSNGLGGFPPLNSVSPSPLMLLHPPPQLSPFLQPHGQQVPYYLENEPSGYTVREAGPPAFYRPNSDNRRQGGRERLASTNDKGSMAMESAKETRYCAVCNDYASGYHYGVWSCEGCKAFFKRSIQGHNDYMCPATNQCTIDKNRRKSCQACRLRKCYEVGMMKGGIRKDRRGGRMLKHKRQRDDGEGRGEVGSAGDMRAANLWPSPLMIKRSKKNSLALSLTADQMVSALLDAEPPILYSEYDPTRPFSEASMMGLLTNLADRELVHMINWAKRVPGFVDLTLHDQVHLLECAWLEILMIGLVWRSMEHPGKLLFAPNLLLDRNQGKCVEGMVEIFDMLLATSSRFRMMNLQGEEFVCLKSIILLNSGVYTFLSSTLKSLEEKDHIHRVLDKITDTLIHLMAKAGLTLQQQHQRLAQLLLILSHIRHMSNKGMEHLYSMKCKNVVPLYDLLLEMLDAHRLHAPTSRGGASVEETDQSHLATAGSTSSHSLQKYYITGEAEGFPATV
As to the kind of experiment: Induction of XIAP-mediated estrogen receptor alpha degradation in human MCF7 cells incubated for 4 hrs by western blot analysis. Format: cell-based.

In assay [13] the test system is T47D. As to the kind of experiment: Antiproliferative activity against human T47D cells incubated for 72 hrs by crystal violet staining based assay. Format: functional, cell-based.
In assay [14] the test system is MCF7. As to the kind of experiment: Antiproliferative activity against human MCF7 cells incubated for 72 hrs by crystal violet staining based assay. The class given is functional, cell-based. The settings on record: MCF7, 72 h.

Turning to `CN[C@@H](C)C(=O)N[C@H](C(=O)N1Cc2cc(OCCOCCOCCOCCOc3ccc(Oc4c(-c5ccc(O)cc5)sc5cc(O)ccc45)cc3)ccc2C[C@H]1C(=O)N[C@@H]1CCCc2ccccc21)C(C)(C)C`, the Activity in the assay on MCF7 [1] was more than 50%.
On to `Cc1ncsc1-c1ccc([C@H](C)NC(=O)[C@@H]2C[C@@H](O)CN2C(=O)[C@@H](NC(=O)CCCCOc2ccc(/C=N/NC(=O)c3ccc(C(=O)c4c(-c5ccc(O)cc5)sc5cc(O)ccc45)cc3)cc2)C(C)(C)C)cc1`, for which the Imax in [2] is more than 95%; in the assay on T47D [3] it was 73%; with MCF7 [7], 60%; in [9] it was 95%. The IC50 in the assay on T47D [4] was 65.2 nM; in the assay on MCF7 [8], 69.1 nM. Besides, the DC50 in [5] came to 7.7 nM; in assay [6] it was 10.3 nM.
`Cc1ncsc1-c1ccc([C@H](C)NC(=O)[C@@H]2C[C@@H](O)CN2C(=O)[C@@H](NC(=O)CCCCOc2ccc(CNNC(=O)c3ccc(C(=O)c4c(-c5ccc(O)cc5)sc5cc(O)ccc45)cc3)cc2)C(C)(C)C)cc1`: the Imax was determined as 78% with T47D [3], 69% with MCF7 [7] and 98% in [9]. Moreover, the values for the half-maximal inhibitory concentration (IC50) in the assay on T47D [4] and in the assay on MCF7 [8] were 17 nM and 13.2 nM, respectively. The compound also registered a DC50 in assay [5] of 1.13 nM.
On to `CCN(CCCCCCCC(=O)N[C@H](C(=O)N1C[C@H](O)C[C@H]1C(=O)N[C@@H](C)c1ccc(-c2scnc2C)cc1)C(C)(C)C)CCOc1ccc(C(=O)c2c(-c3ccc(O)cc3)sc3cc(O)ccc23)cc1`, for which the IC50 was 0.8 nM in the assay with MCF7 [10], 10.5 nM with MCF7 [11] and 6.1 nM in the assay on MCF7 [12].
On Estrogen receptor, `CCC(=C(c1ccc(O)cc1)c1ccc(OCCN(C)C(=O)COCCOCCOCCOc2cccc(O[C@H]3C[C@@H](C(=O)N[C@@H]4CCCc5ccccc54)N(C(=O)[C@@H](NC(=O)[C@H](C)NC)C4CCCCC4)C3)c2)cc1)c1ccccc1` returned a DC50 of less than 3 nM.
Turning to `CCC(=C(c1ccc(O)cc1)c1ccc(OCCN(C)C(=O)COCCOCCOCCOc2cccc(C(=O)c3csc([C@@H]4CCCN4C(=O)[C@@H](NC(=O)[C@H](C)NC)C4CCCCC4)n3)c2)cc1)c1ccccc1`, the IC50 with T47D [13] came to 9.6 nM; with MCF7 [14], 15.6 nM. At Estrogen receptor, this compound came in with a DC50 of less than 3 nM.

The values are drawn from ChEMBL document CHEMBL4706540, “Targeting estrogen receptor α for degradation with PROTACs: A promising approach to overcome endocrine resistance” (Eur J Med Chem, 2020).
